# Tests used:
# [1] = molecular target: human GABAA α5β2γ1 receptor (Homo sapiens (Human), UniProt P31644+Q8N1C3); assay: Radioligand binding assay, competition for [3H]RO7239181, γ1-containing GABAA subtypes
# h-GABA-A α2β2γ1 = h-GABA-A α2β2γ1 (Homo sapiens (Human), UniProt P47869+Q8N1C3); assay: Two-electrode voltage clamp electrophysiology in Xenopus oocytes expressing GABAA receptors; format: cell-based; details: for Efficacy (GABA) %: % modulation of GABA EC20 = 100*(Fold increase−1), compound at about 30-fold its Ki α2β2γ1; for Fold increase h-GABA-A α2β2γ1 oocyte @ 30-fold Ki: Xenopus oocytes, GABA EC20, compound at about 30-fold its Ki α2β2γ1
# Procedure, shortened: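 Xenopus oocytes injected with receptor subunit RNA and recorded 3–5 days later by two-electrode voltage clamp at −80 mV, room temperature, pH 7.4. GABA applied at EC20 for 1.5 min, with and without test compound. Efficacy = extremum of the point-by-point ratio of the two responses, expressed as % modulation of GABA EC20; ≥3 oocytes per concentration.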
Structure (SMILES),Ki [1] [nM],Efficacy (GABA) % (h-GABA-A α2β2γ1) [%],Fold increase h-GABA-A α2β2γ1 oocyte @ 30-fold Ki (h-GABA-A α2β2γ1)
"C[C@@H]1N=C(c2c(F)cccc2F)c2c(sc3c2COCCC3)-n2nc(C(=O)NCC3(O)CC3)nc21 [Example 62, (7S)-9-(2,6-difluorophenyl)-N-[(1-hydroxycyclopropyl)methyl]-7-methyl-13-oxa-18-thia-2,3,5,8-tetrazatetracyclo[8.8.0.02,6.011,17]octadeca-1(10),3,5,8,11(17)-pentaene-4-carboxamide]",5.9,179,2.79
"CCNC(=O)c1nc2n(n1)-c1sc3c(c1C(c1c(F)cccc1F)=N[C@H]2C)COCCO3 [Example 37, (7S)-9-(2,6-difluorophenyl)-N-ethyl-7-methyl-13,16-dioxa-18-thia-2,3,5,8-tetrazatetracyclo[8.8.0.02,6.011,17]octadeca-1(10),3,5,8,11(17)-pentaene-4-carboxamide]",3.21,86,1.86
"C[C@@H]1N=C(c2c(F)cccc2F)c2c(sc3c2COC[C@H](C)O3)-n2nc(C(=O)N3CC(OC(C)(C)C)C3)nc21 [Example 41, (3-tert-butoxyazetidin-1-yl)-[(7S,15S)-9-(2,6-difluorophenyl)-7,15-dimethyl-13,16-dioxa-18-thia-2,3,5,8-tetrazatetracyclo[8.8.0.02,6.011,17]octadeca-1(10),3,5,8,11(17)-pentaen-4-yl]methanone]",6.2,167,2.67
"C[C@@H]1N=C(c2c(F)cccc2F)c2c(sc3c2COC[C@H](C)O3)-n2nc(C(=O)NCCO)nc21 [Example 53, (7S,15S)-9-(2,6-difluorophenyl)-N-(2-hydroxyethyl)-7,15-dimethyl-13,16-dioxa-18-thia-2,3,5,8-tetrazatetracyclo[8.8.0.02,6.011,17]octadeca-1(10),3,5,8,11(17)-pentaene-4-carboxamide]",6.2,237,3.37
"Cc1nnc2n1-c1sc3c(c1C(c1c(F)cccc1F)=N[C@H]2C)CCCCC3O (mixture of isomers) [Example 9, (7S,16RS)-9-(2,6-difluorophenyl)-3,7-dimethyl-18-thia-2,4,5,8-tetrazatetracyclo[8.8.0.02,6.011,17]octadeca-1(10),3,5,8,11(17)-pentaen-16-ol]",2.79,96,1.96
"C[C@@H]1N=C(c2c(F)cccc2F)c2c(sc3c2COCCO3)-n2nc(C(=O)N3CC(F)C3)nc21 [Example 24, (3-fluoroazetidin-1-yl)-[(7S)-9-(2,6-difluorophenyl)-7-methyl-13,16-dioxa-18-thia-2,3,5,8-tetrazatetracyclo[8.8.0.02,6.011,17]octadeca-1(10),3,5,8,11(17)-pentaen-4-yl]methanone]",1.25,59,1.59
"CCOC1CN(C(=O)c2nc3n(n2)-c2sc4c(c2C(c2c(F)cccc2F)=N[C@H]3C)COCCO4)C1 [Example 31, [(7S)-9-(2,6-Difluorophenyl)-7-methyl-13,16-dioxa-18-thia-2,3,5,8-tetrazatetracyclo[8.8.0.02,6.011,17]octadeca-1(10),3,5,8,11(17)-pentaen-4-yl]-(3-ethoxyazetidin-1-yl)methanone]",2.4,69,1.69
"Cc1nnc2n1-c1sc3c(c1C(c1c(F)cccc1F)=N[C@H]2C)CCCC[C@@H]3F (single isomer, unassigned) [Example 12]",2.65,185,2.85
"CCc1nc2n(n1)-c1sc3c(c1C(c1c(F)cccc1F)=N[C@H]2C)COC[C@H](C)O3 [Example 49, (7S,15S)-9-(2,6-difluorophenyl)-4-ethyl-7,15-dimethyl-13,16-dioxa-18-thia-2,3,5,8-tetrazatetracyclo[8.8.0.02,6.011,17]octadeca-1(10),3,5,8,11(17)-pentaene]",3.32,131,2.31
C[C@@H]1N=C(c2c(F)cccc2F)c2c(sc3c2COCCO3)-n2nc(C(=O)NC3CC3)nc21 [Example 36],3.66,89,1.89
"C[C@@H]1N=C(c2c(F)cccc2F)c2c(sc3c2CCCCC3)-n2c(C3CC3)nnc21 [Example 3, (7S)-3-cyclopropyl-9-(2,6-difluorophenyl)-7-methyl-18-thia-2,4,5,8-tetrazatetracyclo[8.8.0.02,6.011,17]octadeca-1(10),3,5,8,11(17)-pentaene]",3.69,91,1.91
"Cc1nnc2n1-c1sc3c(c1C(c1c(F)cccc1Cl)=N[C@H]2C)COCCC3 [Example 61, (7S)-9-(2-chloro-6-fluoro-phenyl)-3,7-dimethyl-13-oxa-18-thia-2,4,5,8-tetrazatetracyclo[8.8.0.02,6.011,17]octadeca-1(10),3,5,8,11(17)-pentaene]",4.98,165,2.65
"C[C@@H]1N=C(c2c(F)cccc2F)c2c(sc3c2COCCO3)-n2nc(C(=O)NC[C@@](C)(O)C(F)(F)F)nc21 [Example 46, (7S)-9-(2,6-difluorophenyl)-7-methyl-N-[(2R)-3,3,3-trifluoro-2-hydroxy-2-methyl-propyl]-13,16-dioxa-18-thia-2,3,5,8-tetrazatetracyclo[8.8.0.02,6.011,17]octadeca-1(10),3,5,8,11(17)-pentaene-4-carboxamide]",3.54,84,1.84
"Cc1nnc2n1-c1sc3c(c1C(c1c(F)cccc1F)=N[C@H]2C)CCCC(F)(F)C3 [Example 8, (7S)-9-(2,6-difluorophenyl)-15,15-difluoro-3,7-dimethyl-18-thia-2,4,5,8-tetrazatetracyclo[8.8.0.02,6.011,17]octadeca-1(10),3,5,8,11(17)-pentaene]",12.8,203,3.03
"C[C@@H]1N=C(c2c(F)cccc2F)c2c(sc3c2COCCO3)-n2nc(C(=O)NCC(C)(C)O)nc21 [Example 45, (7S)-9-(2,6-difluorophenyl)-N-(2-hydroxy-2-methyl-propyl)-7-methyl-13,16-dioxa-18-thia-2,3,5,8-tetrazatetracyclo[8.8.0.02,6.011,17]octadeca-1(10),3,5,8,11(17)-pentaene-4-carboxamide]",3.25,101,2.01
"CCc1nnc2n1-c1sc3c(c1C(c1c(F)cccc1F)=N[C@H]2C)COCCO3 [Example 42, (7S)-9-(2,6-difluorophenyl)-3-ethyl-7-methyl-13,16-dioxa-18-thia-2,4,5,8-tetrazatetracyclo[8.8.0.02,6.011,17]octadeca-1(10),3,5,8,11(17)-pentaene]",2.9,137,2.37
"C[C@@H]1N=C(c2c(F)cccc2F)c2c(sc3c2COCCO3)-n2c(C3CC3)nnc21 [Example 43, (7S)-3-cyclopropyl-9-(2,6-difluorophenyl)-7-methyl-13,16-dioxa-18-thia-2,4,5,8-tetrazatetracyclo[8.8.0.02,6.011,17]octadeca-1(10),3,5,8,11(17)-pentaene]",4.45,94,1.94
"C[C@@H]1N=C(c2c(F)cccc2F)c2c(sc3c2CCCCC3)-n2ccc(=O)nc21 [Example 7, (8S)-10-(2,6-difluorophenyl)-8-methyl-19-thia-2,6,9-triazatetracyclo[9.8.0.02,7.012,18]nonadeca-1(11),3,6,9,12(18)-pentaen-5-one]",2.24,169,2.69
"[2H]C1([2H])OCc2c(sc3c2C(c2c(F)cccc2F)=N[C@@H](C)c2nc(C(=O)N4CCC4)nn2-3)OC1([2H])[2H] [Example 23, azetidin-1-yl-[(7S)-14,14,15,15-tetradeuterio-9-(2,6-difluorophenyl)-7-methyl-13,16-dioxa-18-thia-2,3,5,8-tetrazatetracyclo[8.8.0.02,6.011,17]octadeca-1(10),3,5,8,11(17)-pentaen-4-yl]methanone]",2.49,63,1.63
"CC(C)c1nnc2n1-c1sc3c(c1C(c1c(F)cccc1F)=N[C@H]2C)COCCO3 [Example 44, (7S)-9-(2,6-difluorophenyl)-3-isopropyl-7-methyl-13,16-dioxa-18-thia-2,4,5,8-tetrazatetracyclo[8.8.0.02,6.011,17]octadeca-1(10),3,5,8,11(17)-pentaene]",4.87,116,2.16
"Cc1nnc2n1-c1sc3c(c1C(c1c(F)cccc1F)=N[C@H]2C)CCCCO3 [Example 19, (7S)-9-(2,6-difluorophenyl)-3,7-dimethyl-16-oxa-18-thia-2,4,5,8-tetrazatetracyclo[8.8.0.02,6.011,17]octadeca-1(10),3,5,8,11(17)-pentaene]",1.86,122,2.22
"Cc1nnc2n1-c1sc3c(c1C(c1c(F)cccc1F)=N[C@H]2C)CCC[C@H](F)C3 (single isomer, unassigned) [Example 17]",1.77,135,2.35
